Patent US8580752B2, “Aromatic amides as potentiators of bioefficacy of anti-infective drugs” (priority 2005, dated 2013)
In brackets after ≈: the same amount, converted by molar mass. Like-named read-outs stand apart in the source and are kept apart here.

Assays:
[1] = system: Gm +ve bacteria; test: microbe, parasite or virus in culture; type: cell-based, Gram positive; conditions: for MIC: drug alone, Gm +ve bacteria
[2] = system: Gm −ve bacteria; test: microbe, parasite or virus in culture; type: cell-based, Gram negative; conditions: for MIC: read-out: MIC Drug alone
[3] = system: M. tb; test: MIC of anti infective drugs alone and with potentiators; type: cell-based, Mycobacterium tuberculosis; conditions: for MIC Drug + potentiator: Ciprofloxacin + potentiator; for % decrease in MIC: Ciprofloxacin + potentiator vs drug alone; for MIC: Mycobacterium tuberculosis, drug alone
[4] = system: M. avium ATCC 49601; test: MIC by checkerboard method; type: cell-based
[5] = system: M. tuberculosis 611; test: MIC by checkerboard method; type: cell-based, Mycobacterium tuberculosis
Description: (§1) This checkerboard technique can be performed with liquid or semisolid (agar) media.
(§2) In this method the agar (Mueller Hinton agar, Middlebrook 7H10 agar) was autoclaved and allowed to cool to 55° C. to 50° C. The combination of the standard drug and the potentiator was added to the agar. Serial two fold dilutions of each of standard drug and the potentiator were prepared in appropriate solvents. In order to maintain the desired concentrations of both agar and drugs, and to rule out the effect of solvent, the volume of solvent (containing standard drug or potentiator) added to agar was kept small (i.e ≦5% of the total volume). After the agar plates have been poured and allowed to dry, the bacteria to be tested were applied to the surface of agar with a replicating device designed to deliver a standard inoculum (approx 10^4 cfu|spot). The plates were incubated at 37° C. for 24 hrs (3 weeks in case of Mycobacterium tuberculosis)
(§3) The above-mentioned checkerboard was also performed with liquid media in a microtiter plate format. This method was used to study the combination of antibacterial/antifungal/antiviral drugs with potentiator.

[6] = system: M. tuberculosis 615; test: MIC by checkerboard method; type: cell-based, Mycobacterium tuberculosis
Description: as §1, §2, §3

[7] = system: M. intracellure ATCC 13950; test: MIC by checkerboard method; type: cell-based
[8] = system: M. tuberculosis H37Rv; test: MIC by checkerboard method; type: cell-based, Mycobacterium tuberculosis; conditions: for MIC: Mycobacterium tuberculosis, Rifampicin alone
[9] = system: MRSA; test: MIC by checkerboard method, comparison with piperine; type: cell-based, Staphylococcus aureus; conditions: Tables 5A/5B; for MIC: Staphylococcus aureus
[10] = system: S epidermidis ATCC 12228; test: MIC by checkerboard method; type: cell-based
[11] = system: MRSA 450; test: MIC by checkerboard method; type: cell-based; conditions: Staphylococcus aureus, S aureus MRSA 450
[12] = system: S aureus ATCC 29213; test: MIC by checkerboard method; type: cell-based, Staphylococcus aureus; conditions: for MIC: Staphylococcus aureus; for MIC Amikacin / MIC Ciprofloxacin: Tables 5A/5B
[13] = system: MRSA 33; test: MIC by checkerboard method; type: cell-based; conditions: Staphylococcus aureus, S aureus MRSA 33
[14] = system: B cereus RRL 101; test: MIC by checkerboard method; type: cell-based
[15] = system: Staphylococcus aureus ATCC 29213; test: Systemic infection model of mice; type: in vivo, Swiss albino mice; conditions: ATCC29213, iv, read-out: ED50 for ciprofloxacin
Description: The study was conducted to see the in vivo response of ciprofloxacin in combination with the above-mentioned potentiator. The Swiss albino mice were infected intravenously with Staphylococcus aureus ATCC 29213 (10^7 CFU/mouse). The infected mice were divided in groups and each group consisted of 6 mice. The treatment consisted of one dose i.e. 5 or 10 or 20 mg/kg immediately after the infection followed by the next dose after a gap of 6 hrs. The result was recorded as number of survivals each day.

[16] = with compound of formula 1a 0.09 μg/ml
[17] = with compound of formula 1a 0.78 μg/ml
[18] = with compound of formula 1a 6.25 μg/ml
[19] = with compound of formula 1a 50.0 μg/ml
[20] = Amikacin alone, read-out: MIC of Amikacin
[21] = Ciprofloxacin alone, read-out: MIC Ciprofloxacin
[22] = with the labelled potentiator +6.25 μg/ml
[23] = with the labelled potentiator +12.5 μg/ml
[24] = with the labelled potentiator +25.0 μg/ml
[25] = with the labelled potentiator +50.0 μg/ml
[26] = Mycobacterium tuberculosis, Rifampicin alone

CCC(/C=C/C(=O)N1CCCCC1)=C\c1ccc(OC)c(OC)c1 [4-ethyl-5-(3,4-dimethoxyphenyl)-2E,4E-pentadienoic acid piperidide]
% decrease in MIC [1]: 50-76% | MIC Drug + potentiator [1]: 0.06 to 8 µg/mL | % decrease in MIC [2]: 0-50% | MIC Drug + potentiator [2]: 0.03 to 0.25 µg/mL | MIC Drug + potentiator [3]: 0.25 to 0.5 µg/mL | % decrease in MIC [3]: 50%

CCC(/C=C/C(=O)N1CCCCC1)=C\c1cc2c(c([N+](=O)[O-])c1)OCO2 [5-(3,4-methylenedioxy-5-nitrophenyl)-4-ethyl-2E,4E-pentadienoic acid piperidide]
% decrease in MIC [1]: 0-50% | MIC Drug + potentiator [1]: 0.03 to 0.25 µg/mL

CCC(/C=C/C(=O)N1CCCC1)=C\c1ccc2c(c1)OCO2 [5-(3,4-methylenedioxyphenyl)-4-ethyl-2E,4E-pentadienoic acid pyrrolidide]
MIC of Rifampicin [4, 16]: 2.0 µg/mL | MIC of Rifampicin [4, 17]: 2.0 µg/mL | MIC of Rifampicin [4, 18]: 1.0 µg/mL | MIC of Rifampicin [4, 19]: 1.0 µg/mL | MIC of Rifampicin [5, 16]: 0.03 µg/mL | MIC of Rifampicin [5, 17]: 0.03 µg/mL | MIC of Rifampicin [5, 18]: 0.03 µg/mL | MIC of Rifampicin [5, 19]: 0.03 µg/mL | MIC of Rifampicin [6, 16]: 0.03 µg/mL | MIC of Rifampicin [6, 17]: 0.03 µg/mL | MIC of Rifampicin [6, 18]: 0.03 µg/mL | MIC of Rifampicin [6, 19]: 0.03 µg/mL | MIC of Rifampicin [7, 16]: 2.0 µg/mL | MIC of Rifampicin [7, 17]: 1.0 µg/mL | MIC of Rifampicin [7, 18]: 1.0 µg/mL | MIC of Rifampicin [7, 19]: 1.0 µg/mL | MIC of Rifampicin ([8]; with compound of formula 1a 0.09 μg/ml, M. tuberculosis H37Rv): 0.03 µg/mL | MIC of Rifampicin ([8]; with compound of formula 1a 0.78 μg/ml, M. tuberculosis H37Rv): 0.03 µg/mL | MIC of Rifampicin ([8]; with compound of formula 1a 6.25 μg/ml, M. tuberculosis H37Rv): 0.03 µg/mL | MIC of Rifampicin ([8]; with compound of formula 1a 50.0 μg/ml, M. tuberculosis H37Rv): 0.03 µg/mL

CCC(/C=C/C(=O)N1CCC(O)CC1)=C\c1ccc2c(c1)OCO2 [5-(3,4-methylenedioxyphenyl)-4-ethyl-2E,4E-pentadienoic acid-4-hydroxypiperidide]
% decrease in MIC [1]: 0-50% | MIC Drug + potentiator [1]: 0.03 to 0.25 µg/mL

CCC(CCC(=O)N1CCCCC1)Cc1ccc2c(c1)OCO2 (stereo not shown) [5-(3,4-methylenedioxyphenyl)-4-ethyl-pentanoic acid piperidide]
% decrease in MIC [1]: 0-50% | MIC Drug + potentiator [1]: 0.03 to 0.25 µg/mL

CC(/C=C/C(=O)NC(C)c1ccc(Br)cc1)=C\c1ccc2c(c1)OCO2 (stereo not shown) [5-(3,4-methylenedioxyphenyl)-4-methyl-2E,4E-pentadienoic acid-1-(4-bromophenyl)ethylamide]
% decrease in MIC [1]: 50-76% | MIC Drug + potentiator [1]: 0.06 to 8 µg/mL | % decrease in MIC [2]: 0-50% | MIC Drug + potentiator [2]: 0.03 to 0.25 µg/mL | MIC Drug + potentiator [3]: 0.25 to 0.5 µg/mL | % decrease in MIC [3]: 50%

CC(/C=C/C(=O)N1CCN(C)CC1)=C\c1ccc2c(c1)OCO2 [5-(3,4-methylenedioxyphenyl)-4-methyl-2E,4E-pentadienoic acid-N-methylpiperazide]
% decrease in MIC [1]: 50-76% | MIC Drug + potentiator [1]: 0.06 to 0.12 µg/mL

CCCCC(/C=C/C(=O)N1CCCCC1)=C\c1ccc2c(c1)OCO2 [5-(3,4-methylenedioxyphenyl)-4-n-butyl-2E,4E-pentadienoic acid piperidide]
% decrease in MIC [1]: 50-76% | MIC Drug + potentiator [1]: 0.06 to 8 µg/mL | % decrease in MIC [2]: 0-50% | MIC Drug + potentiator [2]: 0.03 to 0.25 µg/mL | MIC Drug + potentiator [3]: 0.25 to 0.5 µg/mL | % decrease in MIC [3]: 50%

NCC[C@H](O)C(=O)N[C@@H]1C[C@H](N)[C@@H](O[C@H]2O[C@H](CN)[C@@H](O)[C@H](O)[C@H]2O)[C@H](O)[C@H]1O[C@H]1O[C@H](CO)[C@@H](O)[C@H](N)[C@H]1O [Amikacin, reference compound]
MIC ([9]; Amikacin alone, read-out: MIC Amikacin): 4 µg/mL | MIC [10, 20]: 1 µg/mL | MIC [11, 20]: 16 µg/mL | MIC ([12]; ATCC29213, Amikacin alone, read-out: MIC of Amikacin): 2 µg/mL | MIC ([12]; ATCC29213, Tables 5A/5B, Amikacin alone, read-out: MIC Amikacin): 2 µg/mL | MIC [13, 20]: 8 µg/mL | MIC [14, 20]: 1 µg/mL

O=C(O)c1cn(C2CC2)c2cc(N3CCNCC3)c(F)cc2c1=O [Ciprofloxacin, reference compound]
MIC [2]: 0.03 to 0.5 µg/mL (≈ 0.0905 to 1.51 µM) | MIC [3]: 0.5 to 1 µg/mL | MIC [9, 21]: 32 µg/mL | MIC [10, 21]: 0.12 µg/mL | MIC [11, 21]: 32 µg/mL | MIC ([12]; ATCC29213, Ciprofloxacin alone, read-out: MIC Ciprofloxacin): 0.25 µg/mL | MIC ([12]; ATCC29213, Tables 5A/5B, Ciprofloxacin alone, read-out: MIC Ciprofloxacin): 0.25 µg/mL | MIC [13, 21]: 32 µg/mL | ED50 [15]: 9.2 mg/kg | MIC [14, 21]: 0.12 µg/mL

CCN(CC)C(=O)/C=C/C(C)=C/c1ccc2c(c1)OCO2 [Formula 1a, R = CH3, do, R5 = R6 = C2H5, 5-(3,4-methylenedioxyphenyl)-4-methyl-2E,4E-pentadienoic acid-N,N-diethylamide]
% decrease in MIC [1]: 50-76% | MIC Drug + potentiator [1]: 0.06 to 0.12 µg/mL

CCn1cc(C(=O)O)c(=O)c2cc(F)c(N3CCNCC3)cc21 [Norfloxacin, reference compound]
MIC [1]: 0.12 to 32 µg/mL (≈ 0.376 to 100 µM) | MIC Drug alone ([2]; drug alone, Gm −ve bacteria): 0.03 to 64 µg/mL

CC1COc2c(N3CCN(C)CC3)c(F)cc3c(=O)c(C(=O)O)cn1c23 (stereo not shown) [Ofloxacin, reference compound]
MIC [1]: 12 to 32 µg/mL (≈ 33.2 to 88.6 µM) | MIC ([2]; drug alone, Gm −ve bacteria): 0.06 to 32 µg/mL (≈ 0.166 to 88.6 µM) | MIC [3]: 0.5 to 2.5 µg/mL

O=C(/C=C/C=C/c1ccc2c(c1)OCO2)N1CCCCC1 [Piperine, reference compound]
MIC ([9]; with the labelled potentiator +6.25 μg/ml, read-out: MIC Mupirocin): 0.12 µg/mL | MIC ([9]; with the labelled potentiator +12.5 μg/ml, read-out: MIC Mupirocin): 0.12 µg/mL | MIC ([9]; with the labelled potentiator +25.0 μg/ml, read-out: MIC Mupirocin): 0.06 µg/mL | MIC ([9]; with the labelled potentiator +50.0 μg/ml, read-out: MIC Mupirocin): 0.06 µg/mL | MIC Amikacin [9, 22]: 4.0 µg/mL | MIC Ciprofloxacin [9, 22]: 32 µg/mL | MIC Amikacin [9, 23]: 4.0 µg/mL | MIC Ciprofloxacin [9, 23]: 32 µg/mL | MIC Amikacin [9, 24]: 4.0 µg/mL | MIC Ciprofloxacin [9, 24]: 32 µg/mL | MIC Amikacin [9, 25]: 4.0 µg/mL | MIC Ciprofloxacin [9, 25]: 16 µg/mL | MIC Rifampicin ([8]; Tables 5A/5B, with the labelled potentiator +6.25 μg/ml, M tuberculosis H37Rv): 0.12 µg/mL | MIC Rifampicin ([8]; Tables 5A/5B, with the labelled potentiator +12.5 μg/ml, M tuberculosis H37Rv): 0.06 µg/mL | MIC Rifampicin ([8]; Tables 5A/5B, with the labelled potentiator +25.0 μg/ml, M tuberculosis H37Rv): 0.06 µg/mL | MIC ([12]; ATCC29213, Tables 5A/5B, with the labelled potentiator +6.25 μg/ml, read-out: MIC Mupirocin): 0.12 µg/mL | MIC ([12]; ATCC29213, Tables 5A/5B, with the labelled potentiator +12.5 μg/ml, read-out: MIC Mupirocin): 0.12 µg/mL | MIC ([12]; ATCC29213, Tables 5A/5B, with the labelled potentiator +25.0 μg/ml, read-out: MIC Mupirocin): 0.06 µg/mL | MIC ([12]; ATCC29213, Tables 5A/5B, with the labelled potentiator +50.0 μg/ml, read-out: MIC Mupirocin): 0.06 µg/mL | MIC Amikacin [12, 22]: 2.0 µg/mL | MIC Ciprofloxacin [12, 22]: 0.25 µg/mL | MIC Amikacin [12, 23]: 1.0 µg/mL | MIC Ciprofloxacin [12, 23]: 0.25 µg/mL | MIC Amikacin [12, 24]: 0.5 µg/mL | MIC Ciprofloxacin [12, 24]: 0.12 µg/mL | MIC Amikacin [12, 25]: 0.25 µg/mL | MIC Ciprofloxacin [12, 25]: 0.12 µg/mL

CO[C@H]1/C=C/O[C@@]2(C)Oc3c(C)c(O)c4c(O)c(c(/C=N/N5CCN(C)CC5)c(O)c4c3C2=O)NC(=O)/C(C)=C\C=C\[C@H](C)[C@H](O)[C@@H](C)[C@@H](O)[C@@H](C)[C@H](OC(C)=O)[C@@H]1C [Rifampicin, reference compound]
MIC ([4]; Mycobacterium avium, ATCC49601, Rifampicin alone): 2 µg/mL | MIC [5, 26]: 0.06 µg/mL | MIC [6, 26]: 0.06 µg/mL | MIC ([7]; Rifampicin alone): 2 µg/mL | MIC ([8]; M. tuberculosis H37Rv, read-out: MIC of Rifampicin): 0.12 µg/mL | MIC ([8]; Tables 5A/5B, M tuberculosis H37Rv, read-out: MIC Rifampicin): 0.12 µg/mL
